Results taken from patent US7687523B2, “3-heteroaryl-3,9-diazabicyclo[3.3.1]nonane derivatives as nicotinic acetylcholine receptor agonists” (Neurosearch A/S, priority 2006, dated 2010).
Like-named read-outs stand apart in the source and are kept apart here.

Target: nAChRs comprised of α4 and β2 subunits (Rattus norvegicus, UniProt P09483+P12390)
Experiment: In vitro inhibition of 3H-cytisine binding
Source text: In Vitro Inhibition of ^3H-Cytisine Binding
Molecular biology studies have elucidated that there are at least ten nicotinic receptor genes in the brain. The predominant subtype with high affinity for nicotine is comprised of α4 and β2 subunits. nAChRs of the latter type can selectively be labelled by the nicotine agonist ^3H-cytisine.
A standard assay for determining in vitro inhibition of ^3H-cytisine binding is described in e.g. WO 02/096911. When subjected to this test the compounds of the invention show inhibitory activity on the micromolar or sub-micromolar range.

nAChRs comprised of α4 and β2 subunits, sequence (P09483 31-630): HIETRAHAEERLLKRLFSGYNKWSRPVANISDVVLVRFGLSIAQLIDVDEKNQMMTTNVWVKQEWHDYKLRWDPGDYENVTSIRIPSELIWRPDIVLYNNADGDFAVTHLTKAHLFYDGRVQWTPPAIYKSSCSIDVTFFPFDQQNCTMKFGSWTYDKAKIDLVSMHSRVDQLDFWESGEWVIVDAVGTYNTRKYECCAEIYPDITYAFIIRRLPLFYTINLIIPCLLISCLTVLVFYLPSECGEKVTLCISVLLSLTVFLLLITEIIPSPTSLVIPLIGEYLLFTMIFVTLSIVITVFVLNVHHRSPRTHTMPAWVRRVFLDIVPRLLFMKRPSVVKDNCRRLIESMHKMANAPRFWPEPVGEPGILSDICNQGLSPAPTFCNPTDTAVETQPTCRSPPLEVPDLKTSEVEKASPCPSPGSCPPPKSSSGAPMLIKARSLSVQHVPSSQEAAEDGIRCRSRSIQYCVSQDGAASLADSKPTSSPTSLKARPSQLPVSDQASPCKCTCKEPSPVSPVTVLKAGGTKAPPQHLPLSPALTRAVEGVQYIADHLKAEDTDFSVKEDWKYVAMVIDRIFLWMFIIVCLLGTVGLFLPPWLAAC
nAChRs comprised of α4 and β2 subunits, sequence (P12390 25-500): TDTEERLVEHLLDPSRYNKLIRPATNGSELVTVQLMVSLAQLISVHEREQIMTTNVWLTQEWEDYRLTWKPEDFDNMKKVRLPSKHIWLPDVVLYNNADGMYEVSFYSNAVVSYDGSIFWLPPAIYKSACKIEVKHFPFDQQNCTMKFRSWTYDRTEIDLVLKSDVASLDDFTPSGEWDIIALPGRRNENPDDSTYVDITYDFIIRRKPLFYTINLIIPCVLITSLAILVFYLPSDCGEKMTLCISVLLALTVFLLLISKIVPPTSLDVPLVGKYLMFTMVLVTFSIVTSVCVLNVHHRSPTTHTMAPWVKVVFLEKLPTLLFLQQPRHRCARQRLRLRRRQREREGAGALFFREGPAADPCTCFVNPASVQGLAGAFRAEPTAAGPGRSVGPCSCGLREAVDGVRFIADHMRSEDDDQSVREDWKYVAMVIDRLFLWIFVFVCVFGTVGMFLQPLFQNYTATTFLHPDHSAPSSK

| Compound | IC50 [nM] | IC50 (3H-cytisine as radioligand, standard assay as described in WO 02/096911, read-out: In vitro Inhibition of 3H-cytisine Binding IC50) [nM] |
| --- | --- | --- |
| CN1C2CCCC1CN(c1cncc(Cl)c1)C2 [Compound A1, 3-(5-Chloro-pyridin-3-yl)-9-methyl-3,9-diaza-bicyclo[3.3.1]nonane] | 6.3 | – |
| c1cncc(N2CC3CCCC(C2)N3)c1 [Compound B1, 3-Pyridin-3-yl-3,9-diaza-bicyclo[3.3.1]nonane] | 2.5 | – |
| CN1C2CCCC1CN(c1cccnn1)C2 [Compound C1, 9-Methyl-3-pyridazin-3-yl-3,9-diaza-bicyclo[3.3.1]nonane] | – | 460 |
